According to USRE47493E1, “Substituted bicyclic dihydropyrimidinones and their use as inhibitors of neutrophil elastase activity” (Boehringer Ingelheim International GmbH, priority 2014, dated 2019):
pIC50: −log10 of the molar value. In brackets after ≈: the same amount, converted by molar mass. Like-named read-outs stand apart in the source and are kept apart here.

What was measured:
[1] = Assay for the Determination of Metabolic Stability with Human Liver Microsomes; type: in vitro ADME; conditions: pH 7.6; pooled human liver microsomes, 37° C., NADPH; read-out: t1/2 INVITRO
[2] = Assay for Determination of Aqueous Solubility; type: physicochemical; conditions: McIlvaine buffer pH 6.8, 2.5% DMSO; for Aqueous solubility: 24 h
[3] = target: Human neutrophil elastase (Homo sapiens (Human), UniProt P08246); assay: Human Neutrophil Elastase Assay; type: biochemical
In short: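 Readout: AMC fluorescence (ex 380, em 460 nm) after 60 min room-temperature reaction with 250 nM MeOSuc-AAPV-AMC, following 15 min compound–enzyme preincubation. Buffer: Tris/NaCl pH 7.5, 0.01% BSA.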

[4] = human neutrophil elastase, substrate MeOSuc-Ala-Ala-Pro-Val-AMC, pH 7.5, read-out: IC50

Human neutrophil elastase, sequence (P08246 30-267): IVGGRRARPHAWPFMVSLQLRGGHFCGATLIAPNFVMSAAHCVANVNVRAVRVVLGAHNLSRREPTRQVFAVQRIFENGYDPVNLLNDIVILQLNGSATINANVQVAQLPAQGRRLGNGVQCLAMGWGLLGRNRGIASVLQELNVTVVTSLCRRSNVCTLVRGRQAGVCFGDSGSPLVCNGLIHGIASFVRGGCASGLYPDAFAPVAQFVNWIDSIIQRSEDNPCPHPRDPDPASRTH

Structure (SMILES)	half-life at 1 nM [1] [h]	Aqueous solubility [2] [µg/mL]	pIC50 [3, 4]	pIC50 ([3]; read-out: IC50, inhibition of neutrophil elastase)	solubility at 24 h ([2]; McIlvaine buffer pH 6.8 with 2.5% DMSO, aqueous buffer, kinetic from dmso stock) [µg/mL]
CS(=O)(=O)c1cc(C#N)ccc1[C@H]1NC(=O)N(c2cccc(C(F)(F)F)c2)C2=C1C(=O)CCC2 (single isomer, unassigned) [Example 18A]	> 2.17	78	8.32	8.32	
CS(=O)(=O)c1cc(C#N)ccc1[C@H]1NC(=O)N(c2cccc(C(F)F)c2)C2=C1C(=O)CCC2 (single isomer, unassigned) [Example 19A]	> 2.17	92	8.14		
CNC(=O)N1C(=O)N(c2cccc(C(F)(F)F)c2)C2=C(C(=O)CCC2)[C@H]1c1ccc(C#N)cc1S(C)(=O)=O (single isomer, unassigned) [Example 47A]	> 2.17	86	> 9.00		
CCS(=O)(=O)c1cc(C#N)ccc1[C@H]1NC(=O)N(c2cccc(C(F)(F)F)c2)C2=C1C(=O)CCC2 (single isomer, unassigned) [Example 54A]	> 2.17	59	8.49		
CC(C)(O)CNC(=O)N1C(=O)N(c2cccc(C(F)(F)F)c2)C2=C(C(=O)CCC2)C1c1ccc(C#N)cc1 (stereo not shown) [Example 70.9]	> 2.17		8.77		12 (≈ 22.8 µM)
